Measured values published in patent publication US5118601A, “Method of screening purine nucleoside compounds or analogs for the ability to enhance the cellular synthesis and release of adenosine” (The Regents of the University of California, priority 1989, dated 1992).
Several values for one entry are separate records, joined by “and”; a condition that tells them apart may be missing. Equal entries are not always repeated.

Legend:
[1] = test system: HPRT- neuroblastoma cells; assay: Adenosine excretion by stimulated HPRT- neuroblastoma cells (calcium ionophore A23187); format: cell-based; conditions: for correction of lowered adenosine secretion of cells deficient in hypoxanthine phosphoribosyl transferase: pretreatment
Protocol: (§1) To induce ATP catabolism, the growth medium was replaced by medium containing micromolar amounts of the calcium ionophore A23187 and 1.0 μM deoxycoformycin.

[2] = test system: patients with adenylosuccinase deficiency (autism); assay: Therapeutic trial in patients with adenylosuccinase deficiency (autism); format: in vivo, human
Source text: Following authorization, therapeutic trials with AICA riboside were started in two patients with adenylosuccinase deficiency (autism). […] On Day 55, both patients were briefly readmitted for clinical, biochemical and psychiatric evaluation. […] Treatment was maintained until Day 71, and arrested at that date.

[3] = test system: Mouse bone marrow-derived mast cells; assay: Mast cell beta-hexosaminidase release (degranulation); format: cell-based
Protocol: (§2) By preventing mast cell degranulation, it is possible to prevent or control a patient's allergic response. Bone marrow obtained from Balb/C mice femurs was cultured in a 1:1 mixture of Razin media and conditioned media, produced by co-culturing splenocytes from C57B1/6J and C3H mice in the present of Concanavalin A as described by Razin et al. in the Proc. Natl. Acad. Sci. USA 28: 2559-2561, 1981. After weekly passaging and at least 15 days in tissue culture, the resulting cells were 90% pure mast cells and 95% viable as assessed by Trypan blue exclusion. Cells exposed to ribavirin in culture were washed three times prior to use in experiments. Parallel cultures of cells grown in media alone were used as controls for pharmacologically manipulated mast cells. Cell growth was assessed by counting cells at particular time pints and comparing actual numbers of ribavirin-treated cells to numbers of cells grown in media alone.
β-hexosaminidase was chosen as a representative granule-associated, preformed mast cell mediator because it is easily quantitated, and its release nearly identically parallels that of histamine. Mouse bone marrow-derived mast cells were centrifuged at 200×g for 5 minutes, washed three times in Tyrode's buffer lacking divalent cations, sensitized for 30 minutes at 37° C. with anti-DNP (dinitrophenyl phosphate) IgE (1 μg/10^6 cells), and challenged with either DNP-BSA antigen ([…]/3×10^5 cells) or A23187 (10 μg/ml/3×10^5 cells) in 400 μl of complete Tyrode's buffer for 10 minutes at 37° C. Reaction mixtures were centrifuged at 200×g for 10 minutes, and supernatant and pellet β-hexasaminidase concentrations were assayed by the hydrolysis of p-nitrophenyl-β-D-glucosamide as described in Schwartz et al. in J. Immunol. […] Spontaneous β-hexosaminidase release was determined in unchallenged cells. The net % of β-hexosaminidase released is defined as follows: [formula] where [β-hex] is βhexosaminidase and super, is supernatant. When exogenous adenosine was present in reaction mixtures, it was added simultaneously with the secretagogue.

[4] = test system: Mouse bone marrow-derived mast cells; assay: Mast cell leukotriene C4 release (radioimmune assay); format: cell-based; conditions: 100 μM for six days, challenged 20 minutes with A23187; control 51
Protocol: as §2

[5] = test system: HPRT+ neuroblastoma cells; assay: Adenosine excretion by stimulated HPRT+ neuroblastoma cells (calcium ionophore A23187); format: cell-based
Protocol: as §1

ischemic myocardium [6] = assay: Venous inosine levels during coronary artery occlusion in dogs; format: in vivo, dog; conditions: over the 60-minute assay period
Protocol: (§3) Thirteen mongrel dogs were anesthetized with phenobarbital. […] C.V. Dis. 20; 55 (1977). […] Two of the surviving saline-treated animals fibrillated. […] The range was 4.4 to 100 μM.
That the increase in the levels of adenosine is due, at least in part, to a reduction in the amount of ATP that is converted to inosine was shown by analysis of venous blood from dogs in Example III for inosine levels.

[7] = test system: human splenic lymphoblast cell line (WI-L2); assay: Adenosine release by WI-L2 lymphoblasts during ATP breakdown (2-deoxyglucose); format: cell-based
Protocol: The history and properties of the cell line have been described by Hershfield et al. in Science, Vol. 197, p. 1284, 1977.
Catabolism of cellular ATP stores was stimulated by adding either 2-deoxyglucose or a calcium ionophore. At various times, the amount of adenosine released by the cells into the supernatant, or the amount of nucleotides remaining in the cells, was determined by mixing 3 μl of chilled 4.4N perchloric acid with 300 μl of supernatants, or by adding 300 μl of chilled 0.4N perchloric acid to the cell collected as pellets and centrifuging the mixtures at 500×G for 10 minutes at 4° C. […] 1245, 1975. Following centrifugation at 1500×G for three minutes at 4° C., the aqueous phase is removed and frozen at -20° C. until assayed for adenosine, inosine, or for nucleotides. Adenosine was evaluated isocratically on a C-18 microBondapak reverse phase column equilibrated with 4 millimolar potassium phosphate, (pH 3.4):acetonitrile 60% in water (95:5 v/v) buffer. Adenosine elutes at 8-10 minutes, and its identity was confirmed by its sensitivity to adenosine deaminase and by spiking with adenosine standards. The extracted samples from the cell pellet were analyzed for nucleotides by high pressure liquid chromatography on a Whatman Partisil-10 (SAX) column equilibrated with 10 millimolar potassium phosphate, pH 3.78, and eluted with a linear gradient to a 0.25 molar potassium phosphate, 0.5 molar KCl, pH 3.45. […] Peaks were quantitated by comparison with high pressure liquid chromatography analysis of suitable standards.
Cells were grown to about 0.5×10^6 cells/ml (mid-log phase) in FIG. 2 and to about 1.0×10^6 cells/ml (early stationary phase) in FIGS. 7-9.

ischemic myocardium [8] = test system: ischemic myocardium
Protocol: Regional myocardial blood flow was measured using radiolabelled microspheres infused into the left atrium at 5 minutes (open) and 60 minutes (hatched) of occlusion. The means plus the standard deviations are graphed. The asterisks (*) identify differences from saline-treated dogs that are significant at p<0.01.
Thirteen mongrel dogs were anesthetized with phenobarbital. The anterior coronary vein was cannulated and a blood sample was collected into 2N perchloric acid. […] Regional myocardial blood flow was measured within 15 μm radiolabelled spheres infused into the left atrium at 5 and 60 minutes during the ischemic period, as described by Heymann et al. in Prog. […] The electrocardiogram and arterial pressure were monitored throughout the period of ischemia.

[9] = test system: pentylene tetrazol-induced seizures; assay: Pentylene tetrazol-induced seizures in the rat; format: in vivo; conditions: 2000 mg/kg (total dose) intraperitoneal
ischemic myocardium [10] = assay: Coronary venous adenosine during coronary artery occlusion in dogs; format: in vivo, dog
Protocol: FIG. 3. […] Coronary venous blood was collected into chilled 2N perchloric acid at various times before and after coronary artery occlusion. Supernatants from these extracts were neutralized with alamine and freon and evaluated by high performance liquid chromotography.
as §3

[11] = test system: ischemia-induced arrhythmias; assay: Arrhythmias during myocardial ischemia in dogs (electrocardiogram); format: in vivo, dog; conditions: individual treated dogs 1-6
Protocol: as §3
One consequence of myocardial ischemia is arrhythmia and the frequency of arrhythmias is related to the degree of reduced blood flow. […] Electrocardiograms recorded during ischemia of Example III were analyzed for the number of premature ventricular depolarizations (PVD) and ventricular tachycardia (VTAC) episodes.

AMP deaminase = AMP deaminase inhibition (14C-AMP to 14C-IMP conversion, lymphoblast lysate); format: biochemical, human; conditions: 200 μM of each ribotide
[12] = three-hour preincubation and four-hour incubation during 2-deoxyglucose treatment

## NC(=O)c1ncn([C@@H]2O[C@H](CO)[C@@H](O)[C@H]2O)c1N [AICA riboside, 5-amino-4-imidazolecarboxamide riboside]
[1]; HPRT- cells, ionophore 0 μg/ml, AICA riboside 50 μM
  Concentration of Adenosine: < 0.01 µM
[1]
  correction of lowered adenosine secretion of cells deficient in hypoxanthine phosphoribosyl transferase: can be corrected
[2]; all dosages used
  AICA riboside in plasma and CSF: could not be detected
[2]; before and during the trial treatment
  haematology and clinical chemistry parameters: found normal
[2]; one hour after intravenous administration, 20 mg/kg/day
  AICA riboside in plasma: undetectable
[2]; patients
  concentration of ATP and GTP in the erythrocytes: did not influence significantly
  urinary output of succinyladenosine, SAICA riboside and uric acid: without significant effect
[3]; 100 micromolar, A23187 1 μg/ml, 28.8% in its absence
  β-hexosaminidase released: 17.6%
[4]
  supernatant leukotriene C4 concentration: 13 nanograms/106 cells
[5]; 50 μM AICA riboside, A23187 and 1.0 μM deoxycoformycin
  adenosine secreted by treated cells versus control cells: at least twofold more adenosine
[5]; HPRT+ cells, ionophore 0 μg/ml, AICA riboside 50 μM
  Concentration of Adenosine: < 0.01 µM
Ischemic myocardium [6]
  inosine levels in venous blood: more than twofold decrease
[7]; 48-hour pretreatment, 100-500 micromolar
  adenosine release from lymphoblasts: enhances adenosine release
[7]; 18 hours preincubation before 2-deoxyglucose exposure
  adenosine release from lymphoblasts: enhanced adenosine release
[7]; [12]
  adenosine release from lymphoblasts: increased adenosine release
Ischemic myocardium [8]; dog, in vivo
  systemic arterial pressure and heart rate versus saline: no significant differences
Ischemic myocardium [8]; non-ischemic tissue
  flow to normal myocardium: did not alter flow
[9]
  latency to seizure: dramatic prolongation
Ischemic myocardium [10]; at 1 minute of ischemia, saline peak 0.22 ±0.08 at 10 minutes
  peak coronary venous adenosine level: 1.79 ± 0.35 µM
Ischemic myocardium [10]; at 60 minutes of ischemia, saline undetectable, in µM
  coronary venous adenosine level: 0.18±0.15
Ischemic myocardium [10]; reperfusion
  adenosine washout on reperfusion: significant rise
Ischemic myocardium [10]; systemic sampling
  adenosine in blood from the right atrium (systemic blood): no detectable adenosine
[11]
  PVD, individual dogs: 12 EPISODES/H and 10 EPISODES/H and 4 EPISODES/H and 13 EPISODES/H and 6 EPISODES/H
  VTAC, individual dogs: 1 EPISODES/H and 0 EPISODES/H and 27 EPISODES/H

## NC(=O)c1ncn([C@@H]2O[C@H](COP(=O)(O)O)[C@@H](O)[C@H]2O)c1N [AICA ribotide]
AMP deaminase
  AMP deaminase inhibited: 38%

## NC(=O)c1ncn([C@@H]2O[C@H](COP(=O)(O)O)[C@@H](O)[C@H]2O)n1 [ribavirin monophosphate]
AMP deaminase
  AMP deaminase inhibited: 54%

## NC(=O)c1ncn([C@@H]2O[C@H](CO)[C@@H](O)[C@H]2O)n1 [ribavirin, 1-β-D-ribofuranosyl-1H-1,2,4-triazole-3-carboxamide, reference compound]
[1]
  correction of lowered adenosine secretion of cells deficient in hypoxanthine phosphoribosyl transferase: can be corrected
[3]; 1 μM for six days
  mediator release: inhibits mediator release significantly
[3]; 1, 10, or 2 μm for six days, challenged with A23187
  net β-hexosaminidase release versus controls: released significantly less
[3]; three to seven days in 10 μM, washed, challenged with A23187, p<0.05
  β-hexosaminidase release compared to cells cultured in media alone: marked attenuation
[7]; [12]
  adenosine release from lymphoblasts: Increased in vitro adenosine release
[7]; three-hour preincubation and four-hour incubation during 2-deoxyglucose treatment, listed as ribivirin
  adenosine release from lymphoblasts: increased adenosine release
